Data on 32 molecules can be found in patent US10596172B2 (Celgene CAR LLC, priority 2008, dated 2020).

In general, EC50 refers to the concentration that produces a half-maximal response.

This assay has as its system B cell lymphoma cell lines. Put plainly: B cell lymphoma proliferation assay. Format: cell-based.
Setting [1] is: Homo sapiens, DOHH-2, DOHH2 B cell lymphoma cell line, read-out: EC50 (μM) DOHH2.
The mark [2] stands for this setting: Homo sapiens, WSUDLCL2, WSU-DLCL2 B cell lymphoma cell line, read-out: EC50 (μM) WSU-DLCL2.
Setting [3] is: DHL4 B cell lymphoma cell line, read-out: EC50 (μM) DHL4.

Read-outs that look alike come from different tables or passages of the source.

`C=CC(=O)Nc1cccc(Nc2nc(Nc3ccc(N(C)CCOC)nc3)ncc2F)c1` [Compound I-77, N-(3-(5-fluoro-2-(6-((2-methoxyethyl)(methyl)amino)pyridin-3-ylamino)pyrimidin-4-ylamino)phenyl)acrylamide]: the EC50 under setting [1] lay in the range of 0.1 to 1 µM. `C=CC(=O)Nc1cccc(Nc2nc(Nc3ccc(OCC4CCN(C)CC4)nc3)ncc2F)c1` [Compound I-78, N-(3-(5-fluoro-2-(6-((1-methylpiperidin-4-yl)methoxy)pyridin-3-ylamino)pyrimidin-4-ylamino)phenyl)acrylamide]: the EC50 under setting [1] lay within 0.1 to 1 µM. Still for that read-out and setting: as for `C=CC(=O)Nc1cccc(Nc2nc(Nc3ccc(OC4CCC4)nc3)ncc2F)c1` [Compound I-79, N-(3-(2-(6-cyclobutoxypyridin-3-ylamino)-5-fluoropyrimidin-4-ylamino)phenyl)acrylamide], the figure is 1 to 10 µM; as for `C=CC(=O)Nc1cccc(Nc2nc(Nc3ccc(OCCCS(C)(=O)=O)nc3)ncc2F)c1` [Compound I-80, N-(3-(5-fluoro-2-(6-(3-(methylsulfonyl)propoxy)pyridin-3-ylamino)pyrimidin-4-ylamino)phenyl)acrylamide], 0.1 to 1 µM. In the case of `C=CC(=O)Nc1cccc(Oc2nc(Nc3cccc(OCC4CCCN(C)C4)c3)ncc2F)c1` (stereo not shown) [Compound I-81, N-(3-(5-fluoro-2-(3-((1-methylpiperidin-3-yl)methoxy)phenylamino)pyrimidin-4-yloxy)phenyl)acrylamide], under setting [1], the EC50 is 0.1 to 1 µM. Consider `C=CC(=O)Nc1cccc(Nc2nc(Nc3ccc(OCc4ccccn4)c(Cl)c3)ncc2F)c1` [Compound I-86, N-(3-(2-(3-chloro-4-(pyridin-2-ylmethoxy)phenylamino)-5-fluoropyrimidin-4-ylamino)phenyl)acrylamide], for which the EC50 under setting [1] was above 10 µM. Take `C=CC(=O)Nc1cc(Nc2nc(Nc3ccc(OCCOC)cc3)ncc2F)ccc1F` [Compound I-87, N-(2-fluoro-5-(5-fluoro-2-(4-(2-methoxyethoxy)phenylamino)pyrimidin-4-ylamino)phenyl)acrylamide]: the EC50 under setting [1] was 1 to 10 µM. The same measure, in the same setting: the result for `COCCOc1ccc(Nc2ncc(F)c(Nc3cccc(NC(=O)/C=C/CN4CC[C@H](O)C4)c3)n2)cc1` [Compound I-88, (S,E)-N-(3-(5-fluoro-2-(4-(2-methoxyethoxy)phenylamino)pyrimidin-4-ylamino)phenyl)-4-(3-hydroxypyrrolidin-1-yl)but-2-enamide] reads 1 to 10 µM; that for `COCCOc1ccc(Nc2ncc(F)c(Nc3cccc(NC(=O)/C=C/CN4CC[C@@H](O)C4)c3)n2)cc1` [Compound I-89, (R,E)-N-(3-(5-fluoro-2-(4-(2-methoxyethoxy)phenylamino)pyrimidin-4-ylamino)phenyl)-4-(3-hydroxypyrrolidin-1-yl)but-2-enamide], 1 to 10 µM. Consider `C=CC(=O)Nc1cccc(Nc2nc(Nc3ccc(OCC4CCN(C)CC4)cc3)ncc2F)c1` [Compound I-90, N-(3-(5-fluoro-2-(4-((1-methylpiperidin-4-yl)methoxy)phenylamino)pyrimidin-4-ylamino)phenyl)acrylamide], for which the EC50 under setting [1] fell in the range of 0.1 to 1 µM. As for `C=CC(=O)Nc1cccc(Nc2nc(Nc3cccc(OC(C)(C)CO)c3)ncc2F)c1` [Compound I-91, N-(3-(5-fluoro-2-(3-(1-hydroxy-2-methylpropan-2-yloxy)phenylamino)pyrimidin-4-ylamino)phenyl)acrylamide], the EC50 under setting [1] lay in the range of 1 to 10 µM and the EC50 under setting [2] lay within 1 to 10 µM. For the molecule `C=CC(=O)Nc1cccc(Nc2nc(Nc3ccc(OCCOC)nc3)ncc2F)c1` [Compound I-103, N-(3-(5-fluoro-2-(6-(2-methoxyethoxy)pyridine-3-ylamino)pyrimidin-4-ylamino)phenyl)acrylamide], the EC50 under setting [2] is 1 to 10 µM. `C=CC(=O)Nc1cccc(Nc2nc(Nc3cccc(OCCO)c3)ncc2F)c1` [Compound I-105, N-(3-(5-fluoro-2-(3-(2-hydroxyethoxy)phenylamino)pyrimidin-4-ylamino)phenyl)acrylamide]: the EC50 under setting [1] is 0.1 to 1 µM and the EC50 under setting [2] was 1 to 10 µM. Take `C=CC(=O)Nc1cccc(Nc2nc(Nc3ccc(OCCO)nc3)ncc2C(C)=O)c1` [Compound I-121, N-(3-{5-Acetyl-2-[6-(2-hydroxy-ethoxy)-pyridin-3-ylamino]-pyrimidin-4-ylamino}-phenyl)-acrylamide]: the EC50 under setting [1] was in the range of 1 to 10 µM. The same measure, in the same setting: the result for `C=CC(=O)Nc1cccc(Nc2nc(Nc3ccc(OCCOC)nc3)ncc2C(C)=O)c1` [Compound I-122, N-(3-{5-Acetyl-2-[6-(2-methoxy-ethoxy)-pyridin-3-ylamino]-pyrimidin-4-ylamino}-phenyl)-acrylamide] reads 1 to 10 µM; that for `C=CC(=O)Nc1cccc(Nc2nc(Nc3ccc(OCCOC)cc3)ncc2C(C)=O)c1` [Compound I-124, N-(3-{5-Acetyl-2-[4-(2-methoxy-ethoxy)-phenylamino]-pyrimidin-4-ylamino}-phenyl)-acrylamide], 1 to 10 µM; that for `C=CC(=O)Nc1cccc(Nc2nc(Nc3ccc4c(c3)N(C)CCO4)ncc2F)c1` [Compound I-126, N-(3-(2-(4-methyl-2,3-dihydrobenzo[1,4]oxazin-6-yl)amino-5-fluoropyrimidin-4-ylamino)phenyl)acrylamide], below 0.1 µM. With `C=CC(=O)N1CCOc2ccc(Nc3nc(Nc4ccc(OCCO)nc4)ncc3C(C)=O)cc21` [Compound I-128, 1-(6-{5-Acetyl-2-[6-(2-hydroxy-ethoxy)-pyridin-3-ylamino]-pyrimidin-4-ylamino}-2,3-dihydro-benzo[1,4]oxazin-4-yl)-propenone], under setting [1], the EC50 is 1 to 10 µM. Regarding `C=CC(=O)N1CCOc2ccc(Nc3nc(Nc4ccc5c(c4)CC(=O)N5)ncc3C(C)=O)cc21` [Compound I-129, 5-[5-Acetyl-4-(4-acryloyl-3,4-dihydro-2H-benzo[1,4]oxazin-6-ylamino)-pyrimidin-2-ylamino]-1,3-dihydro-indol-2-one], under setting [1], the EC50 was 1 to 10 µM. As for `C=CC(=O)N1Cc2ccc(Nc3nc(Nc4cccc(OC)c4)ncc3C(F)(F)F)cc2C1` [Compound I-132, 1-(5-(5-trifluoromethyl-2-(3-methoxyphenylamino)pyrimidin-4-yl)amino-1,3-dihydroisoindol-2-yl)2-propen-1-one], the EC50 reads like this: under setting [3], 1 to 10 µM; under setting [1], 1 to 10 µM. For the molecule `C=CC(=O)Nc1cccc(Nc2nc(Nc3cc(OC)c(OC)c(OC)c3)ncc2F)c1` [Compound I-133, 4-(3-acrylamidophenylamino)-5-fluoro-2-(3,4,5-trimethoxyphenylamino)-pyrimidine], the EC50 was below 0.1 µM under setting [3] and 0.1 to 1 µM under setting [1].

`C=CC(=O)Nc1cccc(Nc2nc(Nc3ccc(OC)c(OC)c3)ncc2F)c1` [Compound I-134, 4-(3acrylamidophenylamino)-5-fluoro-2-(3,4-dimethoxyphenylamino)-pyrimidine]: the EC50 reads like this: under setting [3], below 0.1 µM; under setting [1], 0.1 to 1 µM. For the molecule `C=CC(=O)N1CCC[C@@H](Nc2nc(Nc3cccc(OCCN4CCOCC4)c3)ncc2F)C1` [Compound I-135, (R)-1-(3-(5-fluoro-2-(3-(2-morpholinoethoxy)phenylamino)pyrimidin-4-ylamino)piperidin-1-yl)prop-2-en-1-one], the EC50 is, setting by setting: under setting [3], above 10 µM; under setting [1], above 10 µM. Regarding `C=CC(=O)Nc1cccc(Nc2nc(Nc3cccc(OCCCS(C)(=O)=O)c3)ncc2F)c1` [Compound I-138, 4-(3-acrylamidophenylamino)-5-fluoro-2-(3-(3-(methylsulfonyl)propoxy)phenylamino)-pyrimidine], the EC50 was 1 to 10 µM under setting [3] and 1 to 10 µM under setting [1]. `C=CC(=O)N1CCOc2ccc(Nc3nc(Nc4ccc(OCCOC)cc4)ncc3F)cc21` [Compound I-141, 1-(6-(5-fluoro-2-(4-(2-methoxyethoxy)phenylamino)pyrimidin-4-ylamino)-2H-benzo[b][1,4]oxazin-4(3H)-yl)prop-2-en-1-one]: the EC50 under setting [1] was 1 to 10 µM. The same measure, in the same setting: as for `C=CC(=O)N1CCOc2ccc(Nc3nc(Nc4ccc(N(C)C(=O)C(F)(F)F)nc4)ncc3C(C)=O)cc21` [Compound I-142, N-(5-(5-acetyl-4-(4-acryloyl-3,4-dihydro-2H-benzo[b][1,4]oxazin-6-ylamino)pyrimidin-2-ylamino)pyridin-2-yl)-2,2,2-trifluoro-N-methylacetamide], the figure is 1 to 10 µM.

Take `C=CC(=O)Nc1cccc(Nc2nc(Nc3ccc4c(c3)N(C(=O)C(F)(F)F)CCO4)ncc2F)c1` [Compound I-143, N-(3-(2-(4-trifluoroacetyl-2,3-dihydrobenzo[1,4]oxazin-6-yl)amino-5-fluoropyrimidin-4-ylamino)phenyl)acrylamide]: the EC50 under setting [3] was in the range of 1 to 10 µM, the EC50 under setting [1] was in the range of 1 to 10 µM and the EC50 under setting [2] lay in the range of 1 to 10 µM. With `C=CC(=O)N1CCC[C@@H](Nc2nc(Nc3cccc(Cl)c3)ncc2F)C1` [Compound I-147, (R)-1-(3-(2-(3-chlorophenylamino)-5-fluoropyrimidin-4-ylamino)piperidin-1-yl)prop-2-en-1-one], the EC50 under setting [1] fell in the range of 1 to 10 µM. Take `C=CC(=O)N1CCOc2ccc(Nc3nc(Nc4ccc(OCCOC)cc4)ncc3C(C)=O)cc21` [Compound I-150, 1-(6-{5-Acetyl-2-[4-(2-methoxy-ethoxy)-phenylamino]-pyrimidin-4-ylamino}-2,3-dihydro-benzo[1,4]oxazin-4-yl)-propenone]: the 50% effective concentration (EC50) is 1 to 10 µM under setting [3], 1 to 10 µM under setting [1] and 1 to 10 µM under setting [2].

With `C=CC(=O)Nc1cccc(Nc2nc(Nc3ccc4c(cnn4C(=O)OC(C)(C)C)c3)ncc2F)c1` [Compound I-151], the EC50 reads like this: under setting [3], 1 to 10 µM; under setting [1], 1 to 10 µM. Take `C=CC(=O)N1CCOc2ccc(Nc3nc(Nc4ccc(N5CCCC5=O)cc4)ncc3C(C)=O)cc21` [Compound I-152, 1-{4-[5-Acetyl-4-(4-acryloyl-3,4-dihydro-2H-benzo[1,4]oxazin-6-ylamino)-pyrimidin-2-ylamino]-phenyl}-pyrrolidin-2-one]: under setting [1], the EC50 was 1 to 10 µM.

Turning to `C=CC(=O)Nc1cccc(Nc2nc(Nc3ccc4c(cnn4C)c3)ncc2F)c1` [Compound I-155], the EC50 lay in the range of 1 to 10 µM under setting [3], 1 to 10 µM under setting [1] and 1 to 10 µM under setting [2].
